From patent publication US9119837B2, “Use of sEH inhibitors as analgesics” (The Regents of the University of California, priority 2005, dated 2015)

Experiments:
[1] = tested on: pain or itch; assay: Topical EETs in the methods of the invention (comparison of EET regioisomers); format: in vivo; details: topical administration
[2] = biological target: T1, sEH (Homo sapiens, UniProt P34913); assay: Inhibition of sEH activity; format: biochemical
T1 sequence (P34913 1-555): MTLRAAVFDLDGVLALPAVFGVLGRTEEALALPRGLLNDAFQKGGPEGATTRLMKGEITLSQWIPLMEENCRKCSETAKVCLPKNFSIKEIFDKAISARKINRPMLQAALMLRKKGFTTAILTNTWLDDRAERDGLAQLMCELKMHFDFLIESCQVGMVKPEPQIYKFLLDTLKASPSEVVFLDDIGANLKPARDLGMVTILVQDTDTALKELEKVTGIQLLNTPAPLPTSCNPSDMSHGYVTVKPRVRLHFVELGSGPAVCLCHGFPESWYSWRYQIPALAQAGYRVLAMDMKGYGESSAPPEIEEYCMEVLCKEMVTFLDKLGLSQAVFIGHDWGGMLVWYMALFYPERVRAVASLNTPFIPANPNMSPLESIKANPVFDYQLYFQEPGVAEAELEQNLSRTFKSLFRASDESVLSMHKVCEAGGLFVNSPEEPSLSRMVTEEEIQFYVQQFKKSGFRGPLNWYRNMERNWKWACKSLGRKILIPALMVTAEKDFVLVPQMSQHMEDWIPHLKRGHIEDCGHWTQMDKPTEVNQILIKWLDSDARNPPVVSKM
Description: Any of a number of standard assays for determining epoxide hydrolase activity can be used to determine inhibition of sEH. For example, suitable assays are described in Gill, et al., Anal Biochem 131, 273-282 (1983); and Borhan, et al., Analytical Biochemistry 231, 188-200 (1995)). Suitable in vitro assays are described in Zeldin et al., J Biol. Chem. 268:6402-6407 (1993). Suitable in vivo assays are described in Zeldin et al., Arch Biochem Biophys 330:87-96 (1996). […]
The enzyme also can be detected based on the binding of specific ligands to the catalytic site which either immobilize the enzyme or label it with a probe such as dansyl, fluoracein, luciferase, green fluorescent protein or other reagent. […] The enzyme also can be detected based on the generation of fluorescent products following the hydrolysis of the epoxide. […]

[3] = Metabolic stability; format: in vitro ADME
[4] = tested on: LPS-elicited mechanical allodynia; assay: LPS-elicited mechanical allodynia, von Frey filaments; format: in vivo, rat; details: topical in vehicle cream; 50 mg/kg; LPS 10 μg; FIG. 3
Protocol: For the quantification of mechanical allodynia, a set of von Frey filaments with different diameters corresponding to different quantities of force applied were employed. The baseline responses of animals were first determined and than LPS was injected in the hind paw. Responses were measured 1 hr and 2 hrs after LPS injection. Eight animals per group were used. Rats' paws were stimulated with filaments of increasing diameter three times. The diameter of filaments that rats withdraw their paws were recorded.

[5] = tested on: LPS-induced thermal hyperalgesia; assay: LPS-induced thermal hyperalgesia, hind paw withdrawal latency test (Hargreaves); format: in vivo, rat; details: for LPS-induced thermal hyperalgesia, percent thermal withdrawal latency (TWL): topical in vehicle cream (Vanicream), 50 mg/kg, LPS 10 μg in hind paw, FIG. 1; for LPS-induced thermal hyperalgesia, dose dependence of percent TWL: topical in vehicle cream, LPS 10 μg, FIG. 2
Description: The hyperalgesic response with the hind paw withdrawal test is considered to result from a combination of central and peripheral mechanisms (Kannan et al., “Endotoxin-induced local inflammation and hyperalgesia in rats mice, a new model for inflammatory pain,” Pharmacology 66:373-379 (1996)). We used the method of Hargreaves et al., “A new and sensitive method for measuring thermal nociception in cutaneous hyperalgesia”, Pain 32, 77-88 (1988) to quantify the pain response of rats treated with two sEH inhibitors and EETs. Pain was quantified using the hind paw withdrawal latency test. Male Sprague-Dawley rats (Charles River Laboratories, Inc., Wilmington, Mass.) weighing 250-300 g, were used. Animals were individually housed at UC Davis Animal Resource Facility under standard conditions with free access to food and water, and maintained for at least 1 week before the experiments. Each rat was used only once. All the experiments were performed during the daytime between 8.00 and 13.00 h (during the first phase of the light period of the diurnal cycle). Rats were first trained to the experimental chamber in three separate sessions. In the day of the experiments rats' basal response was measured and then they were treated with a neutral cream or compound containing formulated cream preceding an injection with 10 ug of endotoxin (Lipopolysaccharide, “LPS”) or capsaicin in the right hind paw to induce pain response. Pain response was then measured at 30, 60, 120 and 240 minutes post LPS or capsaicin injection. sEHIs were formulated by dissolving them in ethanol and mixing with cream in a ratio of 1:9. Eight animals per group were used. To assess thermal nociceptive responses, a commercially available device modeled after that described by Hargreaves et al., supra, was employed. This device consists of a glass surface upon which the rats are placed individually in Plexiglass cubicles (9×22×25 cm). The glass surface temperature is maintained at either 30.1° C. by a feedback-controlled, under-glass, forced-air heating system. The heating system is driven by a thermocouple attached to the bottom surface of the glass plate. The thermal nociceptive stimulus originates from a focused projection bulb mounted in a stimulus tower that is manually manipulated in a two-dimensional axis to permit the stimulus to be delivered to hind paw of each test subject. A timer is automatically actuated with the light source, and response latency is defined as the time required for the paw to show an abrupt withdrawal. Paw withdrawal is detected by a photodiode motion sensor mounted on the stimulus tower that stops the timer and terminates the stimulus. In all cases, a cut-off of 20 seconds is employed to avoid tissue injury. […]

[6] = tested on: carrageenan-elicited thermal hyperalgesia; assay: Carrageenan-elicited thermal hyperalgesia, paw withdrawal latency; format: in vivo, rat; details: carrageenan injected into ipsilateral paw at time 0; AUDA-be administered at 20 hours post-exposure; FIG. 6
Protocol: Animals were exposed to carrageenan at time 0 by injection into ipsilateral paw, the contralateral paw was left untreated. AUDA-be was administered at 20 hours post-exposure to the carrageenan. Filled diamonds are the withdrawal tests of the treated paw. Filled squares are the tests of the untreated paw. To assess thermal nociceptive responses, a commercially available device modeled after that described by Hargreaves et al., supra, was employed. This device consists of a glass surface upon which the rats are placed individually in Plexiglass cubicles (9×22×25 cm). The glass surface temperature is maintained at either 30.1° C. by a feedback-controlled, under-glass, forced-air heating system. The heating system is driven by a thermocouple attached to the bottom surface of the glass plate. The thermal nociceptive stimulus originates from a focused projection bulb mounted in a stimulus tower that is manually manipulated in a two-dimensional axis to permit the stimulus to be delivered to hind paw of each test subject. A timer is automatically actuated with the light source, and response latency is defined as the time required for the paw to show an abrupt withdrawal. Paw withdrawal is detected by a photodiode motion sensor mounted on the stimulus tower that stops the timer and terminates the stimulus. In all cases, a cut-off of 20 seconds is employed to avoid tissue injury. […]

Compound | Effectiveness compared with other EETs in the methods of the invention [1] | Activity as an inhibitor of sEH [2] | Metabolic stability [3] | LPS-elicited mechanical allodynia, percent mechanical withdrawal threshold (MWT) [4] | LPS-induced thermal hyperalgesia, percent thermal withdrawal latency (TWL) [5] | LPS-induced thermal hyperalgesia, dose dependence of percent TWL [5] | Carrageenan-elicited thermal hyperalgesia, thermal withdrawal latency of paw (PWL) [6]
CCCCC/C=C\C[C@H]1O[C@H]1C/C=C\C/C=C\CCCC(=O)O [11,12-EET] | ineffective or less effective than other EETs | – | – | – | – | – | –
CCCCCCCCCCCCNC(=O)NC12CC3CC(CC(C3)C1)C2 [ADU, N-Adamantyl-N′-dodecyl urea] | – | particularly high activity on sEH | metabolically stable | – | – | – | –
CCCCOC(=O)CCCCCCCCCCCNC(=O)NC12CC3CC(CC(C3)C1)C2 [AUDA-be, 12-(3-Adamantan-1-yl-ureido)dodecanoic acid butyl ester] | – | – | – | block LPS-elicited mechanical allodynia | block | block LPS-induced thermal hyperalgesia in a dose dependent way | blocks carrageenan-elicited thermal hyperalgesia
CCOCCOCCOCCCCCNC(=O)NC12CC3CC(CC(C3)C1)C2 [compound 950, Adamantan-1-yl-3-{5-[2-(2-ethoxyethoxy)ethoxy]pentyl}urea] | – | – | – | block LPS-elicited mechanical allodynia | block | block LPS-induced thermal hyperalgesia in a dose dependent way | –
